Values of other authors, collected in US20120238559A1, “NOVEL COMPOUNDS” (GLAXO GROUP LIMITED, priority 2009, published 2012).

Legend:
[1] = system: neutrophils
[2] = system: neutrophils; conditions: treatment of neutrophils; Thelen et al. 1994
[3] = system: Class I PI3-kinases; conditions: each of the four Class I PI3-kinases; read-out: IC50 against each of the various Class I PI3-kinases

O=c1cc(N2CCOCC2)oc2c(-c3ccccc3)cccc12 [LY294002]
neutrophil migration and superoxide release [1]: block neutrophil migration and superoxide release

COC[C@H]1OC(=O)c2coc3c2[C@@]1(C)C1=C(C3=O)[C@@H]2CCC(=O)[C@@]2(C)C[C@H]1OC(C)=O [wortmannin]
fMLP-induced respiratory burst response [2]: prevents the fMLP-induced respiratory burst response | neutrophil migration and superoxide release [1]: block neutrophil migration and superoxide release | IC50 [3]: 1 to 10 nM
